The text below walks through data of patent US20210283163A1, “COMPOSITIONS AND METHODS FOR THE TREATMENT OF ACUTE AND CHRONIC PRURITIS” (Duke University, priority 2018, published 2021).

The test system of data set [1] is mice. The data set is described as follows: Pain tests for mechanical and thermal sensitivity after intraplantar injection. It counts as in vivo, mouse. The conditions noted are these: miR-711 1 mM, AITC 10 mM, 10 μL. How it is done: Pain Tests for Mechanical and Thermal Sensitivity. Mice were habituated to the environment for at least 2 days before the testing. All the behaviors were tested blindly. […] For testing mechanical sensitivity, we confined mice in boxes (14×18×12 cm) placed on an elevated metal mesh floor and stimulated their hind paws with a series of von Frey hairs with logarithmically increasing stiffness (0.16-2.00 g, Stoelting), presented perpendicularly to the central plantar surface. We determined the 50% paw withdrawal threshold by Dixon's up-down method (Dixon, Annu. Rev. Pharmacol. Toxicol. 1980, 20, 441-462). Thermal sensitivity was tested using Hargreaves radiant heat apparatus (Hargreaves et al., Pain 1988, 32, 77-88) (IITC Life Science). For the radiant heat test, the basal paw withdrawal latency was adjusted to 10-15 s, with a cutoff of 25 s to prevent tissue damage.

For data set [2], the system named is mice. The data set is described as follows: Evans blue extravasation, neurogenic inflammation in a hind paw. Type of data set: in vivo, mouse. The conditions noted are these: intraplantar, 10 μL; capsaicin 1 mM, AITC 5 mM, miR-711 1 mM. On the procedure:
Evans Blue Extravasation. To examine neurogenic inflammation in a hind paw (Han et al., Neuron 2016, 92, 1279-1293), mice were anesthetized with 5% isoflurane. Evans blue (50 mg/kg body weight) was given intravenously 10 min before neurogenic irritant application. […] Evans blue was extracted from the tissues by incubation in 400 μL formamide at 37° C. for 48 hr. Evans blue was quantified by measuring the optical density of the formamide extract at 620 nm. Absorbance was normalized to per gram of tissue weight.

The test system of data set [3] is CTCL mice. Briefly: Mouse CTCL xenograft model of chronic itch. It counts as in vivo. The conditions noted are these: given 20 days after Myla cell inoculation; for effect on CTCL-evoked chronic itch: hsa-miR-711 inhibitor 100 μM, HC030031 200 μM, A967079 50 μM, peptides 2 mM. How it is done: Mouse CTCL Xenograft Model of Chronic Itch. We developed a murine xenograft model of cutaneous T cell lymphoma (CTCL) using immune-deficient mice (NOD.CB17-Prkdcscid, 8-10 weeks old, male). CD4^+ MyLa cell line was purchased from Sigma (Ca #95051032). The cell line was established from a plaque biopsy of a person with mycosis fungoides stage II by inclusion of IL-2 and IL-4 in the culture medium. CTCL was generated via intradermal injection of CD4^+ Myla cells (1×10^5 cells/μl, 100 μL) on the nape of the neck. Tumor growth was assessed for 40 days by measurements of tumor diameters.
Behavioral Assessment for Scratching (Itch) and Wiping (Pain). Mice were shaved on the cheek or nape after a brief anesthesia with isoflurane. Before experiments, mice were habituated in small plastic chambers (14×18×12 cm) daily for two days. The room temperature and humidity remained stable for all the experiments. […] After the injection, the number of scratches in 60 min was counted. A scratch was counted when a mouse lifted its hind paw to scratch the shaved region and returned the paw to the floor or to the mouth. A bout of wiping was defined as a continuous wiping movement with a forepaw directing at the area of the injection area (Shimada and LaMotte, Pain 2008, 139, 681-687). Scratching and wiping behavior was videoed for 30 min or 60 min using Sony HDR-CX610 camera. The video was subsequently played back offline and the numbers of scratches and wipes were quantified in a blinded manner.
Generation of Myla Stable Cell Line Expressing miR-711 Inhibitor. CD4^+ Myla cells were plated at a density of 2×10^5 cells/mL in 2 mL culture media in 6-well plates. For each well, 20 μL of the MISSION Lenti microRNA Inhibitor (hsa-miR-711) lentivirus (Sigma) with a titer of 2.6×10^7 Tu/mL were added. Cell mixtures were incubated at 37° C. for 48 hr, washed with PBS three times, and re-suspended in fresh culture media, and 24 hr later, 1 μg/mL puromycin was added to the cells to select stably transduced cell populations. We tried to grow and passage the cells as much as necessary (usually 3 days) and maintained selection pressure by keeping 1 μg/mL puromycin in the medium. After 4 weeks, a large number of the cells were killed; the remaining cells retained the expression of the plasmid, which stably integrates into the genome of the targeted cells. These cells were used for inoculation to generate the CTCL model for testing the effects of miR-711 inhibitor on chronic itch and tumor growth.

Take `C=CCN=C=S` [AITC]: in data set [1], the heat hyperalgesia entry is “elicited marked hyperalgesia and allodynia”; the mechanical allodynia entry is “elicited marked hyperalgesia and allodynia”. In data set [2], the “neurogenic inflammation in hind paws (Evans blue test)” value is “elicited robust neurogenic inflammation”.
Regarding “miR-711: mmu-miR-711: gggacccggggagagauguaag (SEQ ID NO: 5) (GGGACCCGGGGAGAGAUGUAAG; chemistry not given here)”, in data set [1], the heat hyperalgesia entry is “failed to induce” and the mechanical allodynia entry is given as “failed to induce”. The “neurogenic inflammation in hind paws (Evans blue test)” value in data set [2] is given as “failed to elicit neurogenic inflammation”.
Consider `CCC(=N\O)/C(C)=C/c1ccc(F)cc1` [A967079, (1E,3E)-1-(4-Fluorophenyl)-2-methyl-1-pentene-3-one oxime], for which the “effect on CTCL-evoked chronic itch” value in data set [3] is reported as “suppressed”.
With “NH2-FRNELAYPVLTFGQL-COOH (H-FRNELAYPVLTFGQL-OH) [blocking peptide]”, the “duration of reduction of CTCL-evoked chronic itch” value in data set [3] (2 mM) was “more than 5 hr”. Moreover, the “effect on CTCL-evoked chronic itch” value in data set [3] is listed as “effectively reduced”.
